# Laboratory results reported in patent publication US20090054412A1, “Treatment of Sleep Disorders” (priority 2007, published 2009).
# Entries after “also recorded” stand apart in the source; their conditions may differ.
# Assays:
# [1] = Example 2: single and repeat dose pharmacokinetic, safety and pharmacodynamic study in healthy volunteers; type: in vivo; details: human
# Protocol: A single and repeat dose pharmacokinetic safety and pharmacodynamic study of the effects of the compound of formula (II) was conducted using healthy volunteers. The compound of formula (II) was administered orally in 1 mg, 1.5 mg, 2 mg and 2.5 mg doses via a hard gelatine capsule containing the compound in powder form.
# [2] = target: T1, rat GABAA receptors α1β2γ2 (Rattus norvegicus, UniProt P18508+P62813); assay: Stimulation of GABA (EC3-5)-elicited currents in Xenopus oocytes, two-electrode voltage clamp, α1β2γ2; type: cell-based
# T1 construct: expressed in transfected cells; host or cells: Xenopus laevis oocytes, cRNA microinjected
# Text: (§1) 7-Chloro-3-(5-dimethylaminomethyl-[1,2,4]oxadiazol-3-yl)-5methyl-4,5-dihydro-imidazol[1,5,-a][1,4]benzodiazepine-6-one was used to test the effects of the compound of formula (II): […]
# (§2) Similar procedures were chosen as for the investigation of other GABAA receptor subunit specific substances (e.g., Baur et al., 2005; Mol. Pharmacol. 68, 787-792).
# (§3) Lobes of the ovary containing the follicles were obtained by surgical procedures from female Xenopus laevis. Follicles were singled out using a platinum loop. Fifty nL of cRNA solution at a ratio of αx:β2:γ2 of 1:1:5 (3.3-10 nM αx (x=1,2,3,5); 3.3-10 nM β2; 16.7-50 nM γ2) (Boileau et al., 2002; Neuropharmacology 43, 695-700) were microinjected into Xenopus follicles. Several hours after microinjection the follicles were freed of follicular layers and adhering connective tissue by a collagenase/hypertonic shock procedure (Sigel, 1987; J. Physiol.(Land) 386, 73-90). Oocytes were kept at constant 18° C. until measurement (1-4 days) in a modified Barth solution (88 mM NaCl, 1 mM KCl, 2.4 mM NaHCO3, 10 mM Hepes-NaOH (pH 7.5), 0.82 mM MgSO4×7H2O, 0.34 mM Ca(NO3)2×4H2O, 0.41 mM CaCl2×2H2O, 100 U Penicillin/mL, 100 μg Streptomycin/mL, sterile filtered).
# (§4) Currents were measured using a home-built amplifier in combination with a xy-recorder or were digitized using a MacLab/200 (AD Instruments) and stored on a computer. Xenopus oocytes were voltage clamped using the two-electrode voltage clamp technique (electrode resistance about 0.8 MΩ) at −80 mV. The medium contained 90 mM NaCl, 1 mM KCl, 1 mM MgCl2, 1 mM CaCl2, 10 mM Na-Hepes (pH 7.4) and 0.5% DMSO.
# (§5) GABA was applied for 20-50 seconds without or in combination with other drugs and a washout period of 4 minutes was allowed to ensure full recovery from desensitization, which was experimentally determined. The perfusion solution (6 mL/min) was applied through a glass capillary with an inner diameter of 1.35 mm, the mouth of which was placed about 0.4 mm from the surface of the oocyte. The rate of solution change under our conditions has been estimated 70% within less than 0.5 s (Sigel et al., 1990; Neuron 5, 703-711). The entire perfusion system and the assay chamber were cleaned between drug applications by washing with DMSO.
# (§6) Data is given as mean±SD, except in the figures where data is shown for clarity as mean±SEM. Current stimulation was calculated as follows: stimulation (%)=((I(GABA+modulator)−I(GABA))/I(GABA))×100%, where I is the current amplitude. Where indicated, the stimulation was standardized to the stimulation by 1 μM diazepam (100%). To obtain FIGS. 1-4, values for current stimulation obtained at a given concentration of modulator at a given subunit combination were averaged. The data points were fitted with the equation stimulation=efficacy/(1+(potency/concentration of modulator)). The values given in the Tables (Summary) are obtained by fitting individual curves and subsequently averaging efficacy and potency.
# GABA (EC3-5) was applied to an oocyte expressing α1β2γ2 GABAA receptors several times until the current response was stable. The GABA (EC3-5) refers to the effective concentration of GABA, which produces a response that is 3-5% of the maximal response to high concentrations of GABA. Such a low concentration of GABA is chosen in order to better see the potentiating effect of positive allosteric modulators.
# GABA was then applied in combination with various concentrations of the compound of formula (II) between 0.3 nM and 3,000 nM to produce a cumulative concentration response curve. […] In each batch of oocytes the stimulation by 1 μM diazepam was determined in five ocytes, extent of stimulation averaged and defined as 100%. Where indicated, stimulation by the compound of formula (II) in each batch of ocytes was expressed as a percentage of this value in the corresponding batch.
# GABA (EC3-5) was applied to an oocyte expressing α1β2γ2 GABAA receptors several times until the current response was stable.
# [3] = target: T2, rat GABAA receptors α2β2γ2 (Rattus norvegicus, UniProt P18508+P23576); assay: Stimulation of GABA (EC3-5)-elicited currents in Xenopus oocytes, two-electrode voltage clamp, α2β2γ2; type: cell-based
# T2 construct: expressed in transfected cells; host or cells: Xenopus laevis oocytes, cRNA microinjected
# Text: as §1, §2, §3, §4, §5, §6
# Concentration response curves were also performed with oocytes expressing α2β2γ2, α3β2γ2, or α5β2γ2, after establishing the optimal concentration range as indicated above. […] Averaged data of the individual curves summarizing the effects of the compound of formula (II) are shown below for unstandardized and standardized stimulation.
# Concentration response curves were also performed with oocytes expressing α2β2γ2, α3β2γ2, or α5β2γ2.
# Current stimulation by diazepam was determined in each batch of oocytes as follows. GABA (EC3-5) was applied until a stable response was obtained. Subsequently, GABA was applied in combination with 1 μM diazepam.
# T1 sequence (P62813 28-455): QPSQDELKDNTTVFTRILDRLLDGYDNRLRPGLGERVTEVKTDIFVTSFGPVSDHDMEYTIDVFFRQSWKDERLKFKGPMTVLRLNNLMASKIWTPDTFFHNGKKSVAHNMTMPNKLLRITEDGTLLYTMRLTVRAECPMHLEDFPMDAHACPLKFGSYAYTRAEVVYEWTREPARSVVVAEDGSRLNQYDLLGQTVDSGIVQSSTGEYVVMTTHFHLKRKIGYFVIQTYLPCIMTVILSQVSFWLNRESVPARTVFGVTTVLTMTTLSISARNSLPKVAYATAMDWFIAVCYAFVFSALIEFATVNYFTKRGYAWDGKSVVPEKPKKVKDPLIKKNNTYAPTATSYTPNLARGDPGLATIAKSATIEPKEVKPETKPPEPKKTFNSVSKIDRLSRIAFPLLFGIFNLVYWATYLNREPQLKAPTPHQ
# T1 sequence (P63138 25-474 partner limits assumed): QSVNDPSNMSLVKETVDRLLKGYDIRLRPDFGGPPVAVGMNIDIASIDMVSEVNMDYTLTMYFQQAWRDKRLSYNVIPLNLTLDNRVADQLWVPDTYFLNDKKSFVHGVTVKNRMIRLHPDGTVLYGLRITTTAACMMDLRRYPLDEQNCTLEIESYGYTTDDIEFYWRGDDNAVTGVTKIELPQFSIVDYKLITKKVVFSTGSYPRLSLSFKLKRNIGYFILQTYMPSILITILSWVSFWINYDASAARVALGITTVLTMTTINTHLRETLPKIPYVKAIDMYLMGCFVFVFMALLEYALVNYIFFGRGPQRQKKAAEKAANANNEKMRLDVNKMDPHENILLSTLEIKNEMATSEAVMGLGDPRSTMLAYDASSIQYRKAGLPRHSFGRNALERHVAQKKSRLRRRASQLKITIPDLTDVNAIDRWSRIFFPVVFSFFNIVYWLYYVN
# T1 sequence (P18508 39-466): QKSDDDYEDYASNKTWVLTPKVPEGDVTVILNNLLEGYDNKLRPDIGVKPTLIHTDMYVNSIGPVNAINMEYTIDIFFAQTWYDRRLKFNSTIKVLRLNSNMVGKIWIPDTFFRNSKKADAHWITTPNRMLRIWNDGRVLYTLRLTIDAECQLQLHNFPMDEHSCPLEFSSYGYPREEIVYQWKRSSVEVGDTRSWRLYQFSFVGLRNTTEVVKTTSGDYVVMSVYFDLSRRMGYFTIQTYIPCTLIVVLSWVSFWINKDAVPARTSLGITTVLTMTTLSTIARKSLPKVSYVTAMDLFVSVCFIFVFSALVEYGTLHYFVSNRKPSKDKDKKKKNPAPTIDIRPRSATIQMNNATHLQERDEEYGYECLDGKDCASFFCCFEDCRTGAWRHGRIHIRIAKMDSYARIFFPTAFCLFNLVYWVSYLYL
# T2 sequence (P23576 29-451): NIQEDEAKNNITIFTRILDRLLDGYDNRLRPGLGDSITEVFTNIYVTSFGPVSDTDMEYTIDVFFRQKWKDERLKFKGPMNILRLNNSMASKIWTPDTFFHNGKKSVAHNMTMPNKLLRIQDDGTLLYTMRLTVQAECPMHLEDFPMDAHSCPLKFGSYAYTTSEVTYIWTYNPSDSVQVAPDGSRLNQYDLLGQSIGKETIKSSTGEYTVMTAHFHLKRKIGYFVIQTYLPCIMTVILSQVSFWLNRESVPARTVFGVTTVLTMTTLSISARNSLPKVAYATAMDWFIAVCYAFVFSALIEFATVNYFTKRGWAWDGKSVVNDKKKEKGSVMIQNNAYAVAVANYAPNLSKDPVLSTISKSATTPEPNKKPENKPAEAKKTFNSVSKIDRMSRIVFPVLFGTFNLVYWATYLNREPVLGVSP
# T2 sequence (P63138 25-474 partner limits assumed): as the sequence (P63138 25-474 partner limits assumed) above
# T2 sequence (P18508 39-466): as the sequence (P18508 39-466) above
compound,measurement,setting,value
"CN(C)Cc1nc(-c2ncn3c2CN(C)C(=O)c2c(Cl)cccc2-3)no1 [compound of formula (II), 7-chloro-3-(5-dimethylaminomethyl-[1,2,4]oxadiazol-3-yl)-5-methyl-4,5-dihydro-imidazo[1,5-a][1,4]benzodiazepine-6-one]",half-life,"[1]; in vivo, po",3 to 4 h
same,effect of food on the extent of absorption,[1]; oral,little or no effect
same,pharmacokinetic profile on day 14 after repeat dosing compared to day 1,[1]; oral repeat dosing,no significant differences
same,Intrinsic activity / type of allosteric modulation,"[2]; GABAA receptor benzodiazepine site, relative to diazepam",partial positive allosteric modulator; also recorded: partial agonist
same,Receptor subtype preference,"[2]; at concentrations <100 nM, in comparison to α5β2γ2, α3β2γ2 and α2β2γ2",preference for α1β2γ2 GABAA receptors
same,EC50,"[2]; α1β2γ2, GABA EC3-5, mean±SD of individually fitted curves, read-out: Potency",0.018 ± 0.006 µM
same,Standardized Efficacy,"[2]; α1β2γ2, standardized to stimulation by 1 μM diazepam (100%)",62 ± 10% (n = 4)
same,Efficacy,"[2]; α1β2γ2, unstandardized current stimulation",123 ± 19% (n = 4)
same,EC50,"[3]; GABA EC3-5, mean±SD of individually fitted curves, read-out: Potency",0.062 ± 0.021 µM
same,Standardized Efficacy,[3]; standardized to stimulation by 1 μM diazepam (100%),31 ± 6% (n = 5)
same,Efficacy,[3]; unstandardized current stimulation,90 ± 16% (n = 5)
